One assay relates to Cytochrome_P450. Nature of the assay: qRT-PCR expression of induced resistance gene in pine tree callus. The following applies: 200 µg/mℓ, 24 hours. The format is cell-based. On the procedure:
For in vitro analysis of induced resistance, the expression of PR genes and other plant defense-related genes was determined, which are evolved in various defense mechanisms including induced resistance. The primers of sixteen induced resistance-related genes of pine tree used in this invention were listed in the below and elongation factor_1 alpha were used as a reference gene. […] The primer list of defense resistance-related genes
After the treatment with 200 µg / mℓ of candidates of the selected induced resistance material, expression of the induced resistance-related gene in pine callus was determined by qRT-PCR using the primer pairs of defense resistance-related genes in Table 4. As a candidate group of an induced resistance material in pine tree, acibenzolar-S-methyl (ASM), TDL (Tiadinil), ITL (Isotianil), PBZ (Probenzole), AZO (Azoxystrobin), VMA (Validamycin A), MeJA (Methyl jasmonate), BABA (DL-3-aminobutyric acid), 2,3-BDO (2,3-Butanediol), GABA (r-Aminobutyric acid), glucan (Glucan), ER (Ergosterol), and AZA (Azelaic acid) were used. For the in vitro analysis of the expression of induced resistance gene in pine callus, the selected induced resistance materials were applied with 500 µℓ of LM liquid medium on a surface of pine tree callus (100 mg) in 12-well microplate to give final concentration of 200 µg/mℓ. Then, the callus surface was sufficiently reacted for 24 hours with the candidate of pine tree induced resistance material by shaking at 50 rpm in a 25 °C shaking incubator under dark condition. RNAs were extracted from the callus after completion of the reaction with an induced resistance material, followed by synthesis of cDNAs. Then, by carrying out qRT-PCR, the expression of induced resistance genes was determined.
Thus, the following tests were carried out using acibenzolar-S-methyl only. Expression of the induced resistance genes at different culture time after the chemical treatment was examined. For the in vitro assay, LM medium containing pine tree callus was treated with acibenzolar-S-methyl at concentration of 200 µg / mℓ, followed by reaction for 1 day, 7 days, or 14 days in a 25°C shaking incubator under dark condition. RNAs were extracted from the callus after the reaction followed by synthesis of cDNAs. Then, by carrying out qRT-PCR, the expression of the induced resistance genes was determined. Depending on reaction time after the treatment, i.e., after 1 day, 7 days, or 14 days, the expression of the obtained induced resistance genes was examined. […]
For the surface treatment (spraying treatment) of pine tree callus, 100 mg of the pine tree callus were dunked in 500 µℓ LM liquid medium and 500 µℓ of 400 µg/mℓ acibenzolar-S-methyl were sprayed (i.e., sprayed 5 times, 100 µℓ for each spraying, 200 µg/mℓ) on the callus surface. Then, the pine callus sprayed with acibenzolar-S-methyl was reacted for 24 hours by shaking at 50 rpm in a 25°C shaking incubator under dark condition. After the completion of the 24-hour reaction, RNAs were extracted from the callus followed by synthesis of cDNAs. Then, by carrying out qRT-PCR, expression of the induced resistance gene was determined.

For assay [1], the system named is Bursaphelenchus xylophilus. Nature of the assay: Occurrence of pine wilt disease after trunk injection of induced resistance candidate materials, in vivo test in young red pine trees. The following applies: red pine tree (Pinus densiflora), 30 days after inoculation; for Occurrence rate of pine wilt disease: Number of pine trees showing wilt symptoms / Number of pine trees used for the test: trunk injection 100 µℓ per tree; for Number of pine trees showing wilt symptoms only at growing points of a stem: trunk injection. On the procedure:
By using the 15 types of an induced resistance elicitors which have been known to induce the plant resistance against various diseases as candidates, their controlling effect against pine wilt disease was examined. The control efficacy of candidates against pine wilt disease was analyzed according to an in vivo test using red pine tree (Pinus densiflora) which was 2-year old young pine trees (diameter of 5.5 mm or so, and height of about 35 mm).
As a candidate group of an induced resistance material, two kinds of acibenzolar-S-methyl (ASM), TDL (Tiadinil), ITL (Isotianil), PBZ (Probenzole), AZO (Azoxystrobin), VMA (Validamycin A), MeJA (Methyl jasmonate), BABA (DL-3-aminobutyric acid), 2,3-BDO (2,3-Butanediol), SA (salicyclic acid), GABA (r-Aminobutyric acid), glucan (Glucan), ER (Ergosterol), and AZA (Azelaic acid) were used. Only the use of acibenzolar-S-methyl is according to the invention. Injection of the chemicals was carried out by trunk injection method, i.e., at an angle of 45°, a borehole was created by using an electric drill with thickness of 1.5 mm on a pine stem part that is 5 to 10 cm above the soil surface, a tip (200 µℓ) was inserted to the hole, and, after dissolving the candidate material at concentration level of 200, 20, or 2 µg/mℓ in each solvent, the solution was injected in an amount of 100 µℓ per pine tree. After the injection of the chemical agent, the end part of the tip was sealed with parafilm.
The pine tree wilt nematodes (Bursaphelenchus xylophilus, National Institute of Forest Science (NIFoS), South Korea) was incubated at 25°C by feeding them with Botrytis cinerea, which have been cultured on a potato dextrose agar (PDA) medium, and after one week incubation, they were collected by Baermann funnel method and were adjusted to the level of 20,000 worms/mℓ by examining the number of the worms under an optical microscope. One week after the chemical treatment, the inoculation of the pine tree wilt nematodes was carried out by tree barking inoculation of 100 µℓ, i.e., 2,000 worms, per tree, and the result was determined 30 days after the inoculation. […] [Table 1] Occurrence rate of pine wilt disease in candidate group of induced resistance materials

The source of these data is EP3685668B1, “COMPOSITION COMPRISING ACIBENZOLAR-S-METHYL AS EFFECTIVE INGREDIENT FOR CONTROLLING BURSAPHELENCHUS XYLOPHILUS DISEASE AND METHOD FOR CONTROLLING BURSAPHELENCHUS XYLOPHILUS USING SAME” (Industry Foundation of Chonnam National University, priority 2017, dated 2019).

Molecules are shown by their SMILES.

As for `O=C(O)CCCCCCCC(=O)O` [AZA, Azelaic acid], in the assay with Cytochrome_P450, the “Expression of induced resistance gene, Cytochrome_P450” value (shortened to “Expression of induced resistance gene”) is 1.05. The “Occurrence rate of pine wilt disease: Number of pine trees showing wilt symptoms / Number of pine trees used for the test” value in assay [1] (2 µg/mℓ), in assay [1] (20 µg/mℓ) and in assay [1] (200 µg/mℓ) was 2/3 in each case. Also, the “Number of pine trees showing wilt symptoms only at growing points of a stem” value (shortened to “Number … of a stem”) was 1 in assay [1] (20 µg/mℓ) and 2 in assay [1] (200 µg/mℓ).

In the case of `N#Cc1ccccc1NC(=O)c1snc(Cl)c1Cl` [ITL, Isotianil], the “Expression of induced resistance gene” value in the assay with Cytochrome_P450 is recorded as 0.98. Moreover, the figures for the “Occurrence rate of pine wilt disease: Number of pine trees showing wilt symptoms / Number of pine trees used for the test” value in assay [1] (2 µg/mℓ), in assay [1] (20 µg/mℓ) and in assay [1] (200 µg/mℓ) were 2/3, 2/3 and 1/3, respectively. The “Number … of a stem” value in assay [1] (2 µg/mℓ) was found to be 1; in assay [1] (20 µg/mℓ) it was 2; in assay [1] (200 µg/mℓ), 1.

In the case of `CC(N)CC(=O)O` (racemic) [BABA, DL-3-aminobutyric acid], in the assay on Cytochrome_P450, the “Expression of induced resistance gene” value amounted to 0.37. Also, the figures for the “Occurrence rate of pine wilt disease: Number of pine trees showing wilt symptoms / Number of pine trees used for the test” value in assay [1] (2 µg/mℓ), in assay [1] (20 µg/mℓ) and in assay [1] (200 µg/mℓ) were 2/3, 3/3 and 2/3, respectively. Further, the “Number … of a stem” value in assay [1] (2 µg/mℓ), in assay [1] (20 µg/mℓ) and in assay [1] (200 µg/mℓ) was 2 in each case.

Regarding `C=CCOC1=NS(=O)(=O)c2ccccc21` [PBZ, Probenzole], the “Expression of induced resistance gene” value in the assay with Cytochrome_P450 was 1.06. The “Occurrence rate of pine wilt disease: Number of pine trees showing wilt symptoms / Number of pine trees used for the test” value in assay [1] (2 µg/mℓ) is given as 2/3; in assay [1] (20 µg/mℓ), 0/3; in assay [1] (200 µg/mℓ) it was 1/3. Moreover, the “Number … of a stem” value in assay [1] (2 µg/mℓ) and in assay [1] (200 µg/mℓ) was 1 throughout.

Regarding `CC(C)[C@@H](C)/C=C/[C@@H](C)[C@H]1CC[C@H]2C3=CC=C4C[C@@H](O)CC[C@]4(C)[C@H]3CC[C@]12C` [ER, Ergosterol], the “Expression of induced resistance gene” value in the assay with Cytochrome_P450 is 1.06. For the same molecule, the “Occurrence rate of pine wilt disease: Number of pine trees showing wilt symptoms / Number of pine trees used for the test” value is listed as 3/3 in assay [1] (2 µg/mℓ), 0/3 in assay [1] (20 µg/mℓ) and 1/3 in assay [1] (200 µg/mℓ). Besides, the “Number … of a stem” value in assay [1] (2 µg/mℓ) is reported as 1.

Consider `CC(O)C(C)O` (stereo not shown) [2,3-BDO, 2,3-Butanediol], for which the “Expression of induced resistance gene” value in the assay on Cytochrome_P450 turned out to be 0.88. For the same molecule, the results for the “Occurrence rate of pine wilt disease: Number of pine trees showing wilt symptoms / Number of pine trees used for the test” value in assay [1] (2 µg/mℓ), in assay [1] (20 µg/mℓ) and in assay [1] (200 µg/mℓ) were 2/3, 3/3 and 1/3, respectively. Moreover, the entries for the “Number … of a stem” value in assay [1] (2 µg/mℓ), in assay [1] (20 µg/mℓ) and in assay [1] (200 µg/mℓ) were 2, 1 and 1, respectively.

As to `Cc1ccc(NC(=O)c2snnc2C)cc1Cl` [TDL, Tiadinil], in the assay with Cytochrome_P450, the “Expression of induced resistance gene” value worked out at 0.91. For the same molecule, the “Occurrence rate of pine wilt disease: Number of pine trees showing wilt symptoms / Number of pine trees used for the test” value is reported as 3/3 in assay [1] (2 µg/mℓ), 2/3 in assay [1] (20 µg/mℓ) and 1/3 in assay [1] (200 µg/mℓ). In addition, the “Number … of a stem” value in assay [1] (2 µg/mℓ) came out at 3; in assay [1] (20 µg/mℓ), 2; in assay [1] (200 µg/mℓ), 1.

Turning to `OCC1=C[C@@H](N[C@H]2C[C@H](CO)[C@@H](O[C@H]3O[C@@H](CO)[C@H](O)[C@@H](O)[C@@H]3O)[C@H](O)[C@H]2O)[C@H](O)[C@@H](O)[C@@H]1O` [VMA, Validamycin A], the “Expression of induced resistance gene” value in the assay on Cytochrome_P450 is on record as 1.17. The “Occurrence rate of pine wilt disease: Number of pine trees showing wilt symptoms / Number of pine trees used for the test” value is recorded as 2/3 in assay [1] (2 µg/mℓ), 1/3 in assay [1] (20 µg/mℓ) and 2/3 in assay [1] (200 µg/mℓ). In addition, the results for the “Number … of a stem” value in assay [1] (2 µg/mℓ), in assay [1] (20 µg/mℓ) and in assay [1] (200 µg/mℓ) were 2, 1 and 1, respectively.

With `CO/C=C(/C(=O)OC)c1ccccc1Oc1cc(Oc2ccccc2C#N)ncn1` [AZO, Azoxystrobin], in the assay with Cytochrome_P450, the “Expression of induced resistance gene” value was 1.17. The “Occurrence rate of pine wilt disease: Number of pine trees showing wilt symptoms / Number of pine trees used for the test” value in assay [1] (2 µg/mℓ) is 0/3; in assay [1] (20 µg/mℓ), 2/2; in assay [1] (200 µg/mℓ), 2/3. Also, the “Number … of a stem” value was 1 in assay [1] (20 µg/mℓ) and 2 in assay [1] (200 µg/mℓ).

For the molecule `NCCCC(=O)O` [GABA, r-Aminobutyric acid], the “Expression of induced resistance gene” value with Cytochrome_P450 is reported as 2.41. Besides, the “Occurrence rate of pine wilt disease: Number of pine trees showing wilt symptoms / Number of pine trees used for the test” value in assay [1] (2 µg/mℓ) was 3/3; in assay [1] (20 µg/mℓ), 1/3; in assay [1] (200 µg/mℓ) it was 0/3. Moreover, the “Number … of a stem” value in assay [1] (2 µg/mℓ) and in assay [1] (20 µg/mℓ) was 1 each time.
